From PubChem BioAssay (NCI)
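Interpolation was linear, between the two tested concentrations surrounding the appropriate level; five concentrations were tested over 48 hours in 96-well plates. TGI denotes the concentration required for complete inhibition of growth.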

Experiments:
Test in all cases: inhibition of tumour cell growth, NCI panel, 48 h
CAKI-1 renal = test system: CAKI-1 renal
UACC-257 melanoma = test system: UACC-257 melanoma
COLO 205 colon = test system: COLO 205 colon
KM12 colon = test system: KM12 colon
SK-MEL-28 melanoma = test system: SK-MEL-28 melanoma
HOP-92 NSCLC = test system: HOP-92 NSCLC
A498 renal = test system: A498 renal
SK-MEL-2 melanoma = test system: SK-MEL-2 melanoma
A549 NSCLC = test system: A549 NSCLC
SF-539 CNS = test system: SF-539 CNS
NCI-H522 lung = test system: NCI-H522 lung
MDA-MB-231 breast = test system: MDA-MB-231 breast
UACC-62 melanoma = test system: UACC-62 melanoma
HT29 colon = test system: HT29 colon
OVCAR-8 ovarian = test system: OVCAR-8 ovarian
NCI/ADR-RES ovarian = test system: NCI/ADR-RES ovarian
SK-OV-3 ovarian = test system: SK-OV-3 ovarian
HS 578T breast = test system: HS 578T breast
CCRF-CEM leukemia = test system: CCRF-CEM leukemia
HCT-15 colon = test system: HCT-15 colon
EKVX NSCLC = test system: EKVX NSCLC
U251 CNS = test system: U251 CNS
DU-145 prostate = test system: DU-145 prostate
OVCAR-3 ovarian = test system: OVCAR-3 ovarian
SNB-19 CNS = test system: SNB-19 CNS
RPMI-8226 leukemia = test system: RPMI-8226 leukemia
LOX IMVI melanoma = test system: LOX IMVI melanoma
HOP-62 NSCLC = test system: HOP-62 NSCLC
SF-295 CNS = test system: SF-295 CNS
K-562 leukemia = test system: K-562 leukemia
M14 melanoma = test system: M14 melanoma
HL-60(TB) leukemia = test system: HL-60(TB) leukemia
MDA-N = test system: MDA-N
SK-MEL-5 melanoma = test system: SK-MEL-5 melanoma
OVCAR-5 ovarian = test system: OVCAR-5 ovarian
HCT-116 colon = test system: HCT-116 colon
SN12C renal = test system: SN12C renal
MALME-3M melanoma = test system: MALME-3M melanoma
MCF7 breast = test system: MCF7 breast
MOLT-4 leukemia = test system: MOLT-4 leukemia
RXF 393 renal = test system: RXF 393 renal
T-47D breast = test system: T-47D breast
TK-10 renal = test system: TK-10 renal
UO-31 renal = test system: UO-31 renal
HCC-2998 colon = test system: HCC-2998 colon
NCI-H23 lung = test system: NCI-H23 lung
786-0 renal = test system: 786-0 renal
IGROV1 ovarian = test system: IGROV1 ovarian
PC-3 prostate = test system: PC-3 prostate
SW-620 colon = test system: SW-620 colon
NCI-H460 lung = test system: NCI-H460 lung
BT-549 breast = test system: BT-549 breast
NCI-H226 lung = test system: NCI-H226 lung
SF-268 CNS = test system: SF-268 CNS
ACHN renal = test system: ACHN renal
SNB-75 CNS = test system: SNB-75 CNS
OVCAR-4 ovarian = test system: OVCAR-4 ovarian
MDA-MB-435 = test system: MDA-MB-435
SR leukemia = test system: SR leukemia

`Cc1ccc(/C=C2\CCC/C(=C\c3ccc(O)c(CN4CCCCC4)c3)C2=O)cc1` gave a TGI (CAKI-1 renal) of 33 µM, a TGI (UACC-257 melanoma) of 25.3 µM and a TGI (COLO 205 colon) of 44.6 µM. The TGI (KM12 colon) was 8.33 µM, the TGI (SK-MEL-28 melanoma) was > 53.5 µM and the TGI (HOP-92 NSCLC) was 25.2 µM. The TGI (A498 renal) was 13.9 µM, the TGI (SK-MEL-2 melanoma) was > 54.8 µM and the TGI (A549 NSCLC) was > 49.3 µM. For the same compound, the TGI (SF-539 CNS) was 26.6 µM, the TGI (NCI-H522 lung) was 17.9 µM and the TGI (MDA-MB-231 breast) was 22.3 µM. The TGI (UACC-62 melanoma) was 9.92 µM, the TGI (HT29 colon) was 3.78 µM and the TGI (OVCAR-8 ovarian) was 8.37 µM. For the same compound, the TGI (NCI/ADR-RES ovarian) was 12 µM, the TGI (SK-OV-3 ovarian) was 26.3 µM and the TGI (HS 578T breast) was 38.5 µM. For the same compound, the TGI (CCRF-CEM leukemia) was > 29.1 µM, the TGI (HCT-15 colon) was 18.3 µM and the TGI (EKVX NSCLC) was 27.8 µM. The TGI (U251 CNS) was 37.6 µM, the TGI (DU-145 prostate) was 16.6 µM and the TGI (OVCAR-3 ovarian) was 36.5 µM. For the same compound, the TGI (SNB-19 CNS) was 36.5 µM, the TGI (RPMI-8226 leukemia) was > 100 µM and the TGI (LOX IMVI melanoma) was 10.3 µM. The TGI (HOP-62 NSCLC) was > 51.7 µM, the TGI (SF-295 CNS) was 26 µM and the TGI (K-562 leukemia) was > 38.3 µM. The TGI (M14 melanoma) was > 37.7 µM, the TGI (HL-60(TB) leukemia) was > 100 µM and the TGI (MDA-N) was 25.2 µM. The TGI (SK-MEL-5 melanoma) was 19.1 µM, the TGI (OVCAR-5 ovarian) was 38.9 µM and the TGI (HCT-116 colon) was 7.65 µM. The TGI (SN12C renal) was 26.5 µM, the TGI (MALME-3M melanoma) was 43.7 µM and the TGI (MCF7 breast) was 23.1 µM. It also gave a TGI (MOLT-4 leukemia) of 9.03 µM, a TGI (RXF 393 renal) of 27.1 µM and a TGI (T-47D breast) of 60.2 µM. For the same compound, the TGI (TK-10 renal) was 37.9 µM, the TGI (UO-31 renal) was 23.3 µM and the TGI (HCC-2998 colon) was 15.3 µM. For the same compound, the TGI (NCI-H23 lung) was 18.3 µM, the TGI (786-0 renal) was 14.3 µM and the TGI (IGROV1 ovarian) was 26.5 µM. The TGI (PC-3 prostate) was > 47.5 µM, the TGI (SW-620 colon) was 17.7 µM and the TGI (NCI-H460 lung) was 20 µM. It also gave a TGI (BT-549 breast) of 23.9 µM, a TGI (NCI-H226 lung) of 23.3 µM and a TGI (SF-268 CNS) of 13 µM. For the same compound, the TGI (ACHN renal) was 18.6 µM, the TGI (SNB-75 CNS) was 22.6 µM and the TGI (OVCAR-4 ovarian) was 33 µM. The TGI (MDA-MB-435) was 25.5 µM and the TGI (SR leukemia) was 8.62 µM.

With `COc1ccccc1N1CCN(CCCN2/C(=C(\O)c3ccccc3)C(=O)c3c(C)cc(C)nc3S2(=O)=O)CC1` the TGI (CAKI-1 renal) was > 100 µM, the TGI (UACC-257 melanoma) was > 100 µM and the TGI (COLO 205 colon) was > 100 µM. For the same compound, the TGI (KM12 colon) was > 100 µM, the TGI (SK-MEL-28 melanoma) was > 100 µM and the TGI (HOP-92 NSCLC) was 98 µM. The TGI (A498 renal) was > 100 µM, the TGI (SK-MEL-2 melanoma) was > 100 µM and the TGI (A549 NSCLC) was > 100 µM. The TGI (SF-539 CNS) was > 100 µM, the TGI (NCI-H522 lung) was > 100 µM and the TGI (MDA-MB-231 breast) was > 100 µM. The TGI (UACC-62 melanoma) was > 100 µM, the TGI (HT29 colon) was > 100 µM and the TGI (OVCAR-8 ovarian) was > 100 µM. The TGI (NCI/ADR-RES ovarian) was > 100 µM, the TGI (SK-OV-3 ovarian) was > 100 µM and the TGI (HS 578T breast) was > 100 µM. The TGI (CCRF-CEM leukemia) was > 100 µM, the TGI (HCT-15 colon) was > 100 µM and the TGI (EKVX NSCLC) was > 100 µM. For the same compound, the TGI (U251 CNS) was > 100 µM, the TGI (DU-145 prostate) was > 100 µM and the TGI (OVCAR-3 ovarian) was > 100 µM. The TGI (SNB-19 CNS) was > 100 µM, the TGI (LOX IMVI melanoma) was 50 µM and the TGI (HOP-62 NSCLC) was > 100 µM. The TGI (SF-295 CNS) was > 100 µM, the TGI (K-562 leukemia) was > 100 µM and the TGI (M14 melanoma) was > 100 µM. The TGI (HL-60(TB) leukemia) was > 100 µM, the TGI (MDA-N) was > 100 µM and the TGI (SK-MEL-5 melanoma) was > 100 µM. The TGI (OVCAR-5 ovarian) was > 100 µM, the TGI (HCT-116 colon) was > 100 µM and the TGI (SN12C renal) was > 100 µM. For the same compound, the TGI (MALME-3M melanoma) was > 100 µM, the TGI (MCF7 breast) was > 100 µM and the TGI (MOLT-4 leukemia) was > 100 µM. The TGI (RXF 393 renal) was > 100 µM, the TGI (T-47D breast) was > 100 µM and the TGI (TK-10 renal) was > 100 µM. For the same compound, the TGI (UO-31 renal) was > 100 µM, the TGI (NCI-H23 lung) was > 100 µM and the TGI (786-0 renal) was > 100 µM. The TGI (IGROV1 ovarian) was > 100 µM, the TGI (PC-3 prostate) was > 100 µM and the TGI (SW-620 colon) was > 100 µM. For the same compound, the TGI (NCI-H460 lung) was > 100 µM, the TGI (BT-549 breast) was > 100 µM and the TGI (NCI-H226 lung) was 87.9 µM. For the same compound, the TGI (SF-268 CNS) was > 100 µM, the TGI (ACHN renal) was > 100 µM and the TGI (SNB-75 CNS) was 30.8 µM. The TGI (OVCAR-4 ovarian) was > 100 µM, the TGI (MDA-MB-435) was > 100 µM and the TGI (SR leukemia) was > 100 µM.
